Experimental data reported in PubChem BioAssay AID1919004 (Molecular Pharmacology Branch, DTP, NCI, 2023).

Test system: 883617-216-R-J1-PDC complex spheroids, growth, % test/control
Test: Anticancer human tumor 883617-216-R-J1-PDC patient-derived bladder carcinoma cell line growth inhibition [AhR]
Conditions: for IC50: curve of first compound; for viability, T/C: stronger effect = lower value
In short: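 Complex tumor spheroids co-cultured with HUVEC and human MSC stroma; AhR antagonists tested in combination with standard-of-care and investigational agents. Top concentration at or near clinical Cmax (else 10 microM), half-log dilutions; growth expressed as percent test/control.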

[1] = second compound 0.1 µM, first compound 0.00949 µM
[2] = second compound 0.1 µM, first compound 0.03 µM
[3] = second compound 0.1 µM, first compound 0.0949 µM
[4] = second compound 0.1 µM, first compound 0.3 µM
[5] = second compound 0.316 µM, first compound 0.00949 µM
[6] = second compound 0.316 µM, first compound 0.03 µM
[7] = second compound 0.316 µM, first compound 0.0949 µM
[8] = second compound 0.316 µM, first compound 0.3 µM
[9] = second compound 1 µM, first compound 0.00949 µM
[10] = second compound 1 µM, first compound 0.03 µM
[11] = second compound 1 µM, first compound 0.0949 µM
[12] = second compound 1 µM, first compound 0.3 µM
[13] = second compound 3.16 µM, first compound 0.00949 µM
[14] = second compound 3.16 µM, first compound 0.03 µM
[15] = second compound 3.16 µM, first compound 0.0949 µM
[16] = second compound 3.16 µM, first compound 0.3 µM
[17] = second compound 10 µM, first compound 0.00949 µM
[18] = second compound 10 µM, first compound 0.03 µM
[19] = second compound 10 µM, first compound 0.0949 µM
[20] = second compound 10 µM, first compound 0.3 µM
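Further: exposure lasted 7 days after dosing on day 3 of spheroid growth.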

For `COc1cc(C2c3cc4c(cc3C(OC3OC5COC(C)OC5C(O)C3O)C3COC(=O)C23)OCO4)cc(OC)c1O` (stereo not given) + Cc1cncc(-c2nc(NCCc3c[nH]c4ccccc34)c3ncn(C(C)C)c3n2)c1, which IC50 (second compound 0.1 µM) is on record?
Its IC50 is greater than 10000 nM.

What about the IC50 (second compound 0.316 µM) of the same molecule?
The IC50 was greater than 10000 nM.

And the IC50 (second compound 1 µM)?
Its IC50 is greater than 10000 nM.

And the IC50 (second compound 3.16 µM)?
The IC50 was greater than 10000 nM.

And the IC50 (second compound 10 µM)?
Its IC50 is 68.8 nM.

What about the viability, T/C (second compound 0.1 µM, first compound 0.0316 µM) of the same molecule?
Its viability, T/C is 77.3%.

And the viability, T/C (second compound 0.1 µM, first compound 0.1 µM)?
Its viability, T/C is 81.3%.

And the viability, T/C (second compound 0.1 µM, first compound 0.316 µM)?
The viability, T/C was 70%.

What about the viability, T/C (second compound 0.1 µM, first compound 1 µM) of the same molecule?
The viability, T/C was 66.8%.

What about the viability, T/C (second compound 0.1 µM, first compound 3.16 µM) of the same molecule?
The viability, T/C was 69.6%.

And the viability, T/C (second compound 0.1 µM, first compound 10 µM)?
Its viability, T/C is 57.4%.

And the viability, T/C (second compound 0.316 µM, first compound 0.0316 µM)?
Its viability, T/C is 84.9%.

What about the viability, T/C (second compound 0.316 µM, first compound 0.1 µM) of the same molecule?
Its viability, T/C is 81.1%.

What about the viability, T/C (second compound 0.316 µM, first compound 0.316 µM) of the same molecule?
The viability, T/C was 73.6%.

What about the viability, T/C (second compound 0.316 µM, first compound 1 µM) of the same molecule?
Its viability, T/C is 65.3%.

And the viability, T/C (second compound 0.316 µM, first compound 3.16 µM)?
The viability, T/C was 64.1%.

And the viability, T/C (second compound 0.316 µM, first compound 10 µM)?
The viability, T/C was 60.9%.

What about the viability, T/C (second compound 1 µM, first compound 0.0316 µM) of the same molecule?
Its viability, T/C is 91.4%.

What about the viability, T/C (second compound 1 µM, first compound 0.1 µM) of the same molecule?
The viability, T/C was 86.4%.

And the viability, T/C (second compound 1 µM, first compound 0.316 µM)?
The viability, T/C was 78.7%.

And the viability, T/C (second compound 1 µM, first compound 1 µM)?
Its viability, T/C is 71.5%.

What about the viability, T/C (second compound 1 µM, first compound 3.16 µM) of the same molecule?
Its viability, T/C is 81.4%.

And the viability, T/C (second compound 1 µM, first compound 10 µM)?
Its viability, T/C is 64.7%.

What about the viability, T/C (second compound 3.16 µM, first compound 0.0316 µM) of the same molecule?
The viability, T/C was 89.9%.

And the viability, T/C (second compound 3.16 µM, first compound 0.1 µM)?
Its viability, T/C is 89%.

What about the viability, T/C (second compound 3.16 µM, first compound 0.316 µM) of the same molecule?
The viability, T/C was 80.1%.

And the viability, T/C (second compound 3.16 µM, first compound 1 µM)?
Its viability, T/C is 79%.

And the viability, T/C (second compound 3.16 µM, first compound 3.16 µM)?
Its viability, T/C is 70%.

And the viability, T/C (second compound 3.16 µM, first compound 10 µM)?
The viability, T/C was 65.6%.

What about the viability, T/C (second compound 10 µM, first compound 0.0316 µM) of the same molecule?
Its viability, T/C is 51.4%.

What about the viability, T/C (second compound 10 µM, first compound 0.1 µM) of the same molecule?
The viability, T/C was 50.3%.

What about the viability, T/C (second compound 10 µM, first compound 0.316 µM) of the same molecule?
The viability, T/C was 49.9%.

What about the viability, T/C (second compound 10 µM, first compound 1 µM) of the same molecule?
The viability, T/C was 39.1%.

And the viability, T/C (second compound 10 µM, first compound 3.16 µM)?
The viability, T/C was 41.5%.

What about the viability, T/C (second compound 10 µM, first compound 10 µM) of the same molecule?
The viability, T/C was 45.5%.

Which IC50 (second compound 0.1 µM) does the source give for `O=C(C=Cn1cnc(-c2cc(C(F)(F)F)cc(C(F)(F)F)c2)n1)NNc1cnccn1` + Cc1cncc(-c2nc(NCCc3c[nH]c4ccccc34)c3ncn(C(C)C)c3n2)c1 here?
Its IC50 is 900 nM.

And the IC50 (second compound 0.316 µM)?
Its IC50 is 1380 nM.

What about the IC50 (second compound 1 µM) of the same molecule?
Its IC50 is 1760 nM.

And the IC50 (second compound 3.16 µM)?
The IC50 was 1530 nM.

And the IC50 (second compound 10 µM)?
The IC50 was less than 9.49 nM.

And the viability, T/C [1]?
The viability, T/C was 81.5%.

What about the viability, T/C [2] of the same molecule?
Its viability, T/C is 74.9%.

And the viability, T/C [3]?
Its viability, T/C is 63.7%.

And the viability, T/C [4]?
The viability, T/C was 58.1%.

What about the viability, T/C (second compound 0.1 µM, first compound 0.949 µM) of the same molecule?
The viability, T/C was 50.1%.

What about the viability, T/C (second compound 0.1 µM, first compound 3 µM) of the same molecule?
Its viability, T/C is 42.5%.

What about the viability, T/C [5] of the same molecule?
The viability, T/C was 88.3%.

What about the viability, T/C [6] of the same molecule?
Its viability, T/C is 78.4%.

And the viability, T/C [7]?
The viability, T/C was 72.3%.

And the viability, T/C [8]?
Its viability, T/C is 58.1%.

What about the viability, T/C (second compound 0.316 µM, first compound 0.949 µM) of the same molecule?
The viability, T/C was 57.1%.

And the viability, T/C (second compound 0.316 µM, first compound 3 µM)?
Its viability, T/C is 42.4%.

And the viability, T/C [9]?
Its viability, T/C is 83%.

What about the viability, T/C [10] of the same molecule?
Its viability, T/C is 79.1%.

And the viability, T/C [11]?
Its viability, T/C is 69.5%.

And the viability, T/C [12]?
The viability, T/C was 61.4%.

And the viability, T/C (second compound 1 µM, first compound 0.949 µM)?
Its viability, T/C is 62%.

What about the viability, T/C (second compound 1 µM, first compound 3 µM) of the same molecule?
Its viability, T/C is 42.7%.

And the viability, T/C [13]?
The viability, T/C was 93.6%.

What about the viability, T/C [14] of the same molecule?
The viability, T/C was 88.2%.

What about the viability, T/C [15] of the same molecule?
The viability, T/C was 80%.

And the viability, T/C [16]?
The viability, T/C was 67.5%.

What about the viability, T/C (second compound 3.16 µM, first compound 0.949 µM) of the same molecule?
Its viability, T/C is 52.9%.

And the viability, T/C (second compound 3.16 µM, first compound 3 µM)?
Its viability, T/C is 45.2%.

And the viability, T/C [17]?
Its viability, T/C is 49.5%.

And the viability, T/C [18]?
The viability, T/C was 40.5%.

And the viability, T/C [19]?
Its viability, T/C is 32.4%.

And the viability, T/C [20]?
The viability, T/C was 29.7%.

And the viability, T/C (second compound 10 µM, first compound 0.949 µM)?
Its viability, T/C is 42.5%.

And the viability, T/C (second compound 10 µM, first compound 3 µM)?
Its viability, T/C is 44.2%.

Which results are given for `CCc1c2c(nc3ccc(O)cc13)-c1cc3c(c(=O)n1C2)COC(=O)[C@]3(O)CC` + Cc1ccccc1N=Nc1ccc(NC(=O)c2ccnn2C)c(C)c1?
IC50 (second compound 0.1 µM): 185 nM; IC50 (second compound 0.316 µM): 163 nM; IC50 (second compound 1 µM): 121 nM; IC50 (second compound 3.16 µM): 109 nM; IC50 (second compound 10 µM): 199 nM; viability, T/C (second compound 0.1 µM, first compound 0.000949 µM): 92%; viability, T/C (second compound 0.1 µM, first compound 0.003 µM): 84%; viability, T/C [1]: 72.7%; viability, T/C [2]: 70.2%; viability, T/C [3]: 60.3%; viability, T/C [4]: 42.1%; viability, T/C (second compound 0.316 µM, first compound 0.000949 µM): 80.8%; viability, T/C (second compound 0.316 µM, first compound 0.003 µM): 82.2%; viability, T/C [5]: 77.6%; viability, T/C [6]: 66.8%; viability, T/C [7]: 56.5%; viability, T/C [8]: 43.6%; viability, T/C (second compound 1 µM, first compound 0.000949 µM): 80.9%; viability, T/C (second compound 1 µM, first compound 0.003 µM): 83.8%; viability, T/C [9]: 79.1%; viability, T/C [10]: 61.6%; viability, T/C [11]: 54.4%; viability, T/C [12]: 44%; viability, T/C (second compound 3.16 µM, first compound 0.000949 µM): 81.7%; viability, T/C (second compound 3.16 µM, first compound 0.003 µM): 84%; viability, T/C [13]: 70.7%; viability, T/C [14]: 64.7%; viability, T/C [15]: 51.5%; viability, T/C [16]: 39.4%; viability, T/C (second compound 10 µM, first compound 0.000949 µM): 78.8%; viability, T/C (second compound 10 µM, first compound 0.003 µM): 77.2%; viability, T/C [17]: 72.6%; viability, T/C [18]: 74.8%; viability, T/C [19]: 56.8%; viability, T/C [20]: 44.9%
